Assay results reported in ChEMBL document CHEMBL4619782, “The Structural Basis for Nonsteroidal Anti-Inflammatory Drug Inhibition of Human Dihydrofolate Reductase” (J Med Chem, 2020).
pIC50, pKi: −log10 of the molar value.

Columns and labels:
Dihydrofolate reductase = target: T1, Dihydrofolate reductase (Homo sapiens, UniProt P00374); experiment: Inhibition of human DHFR in presence of DHF and NADPH by UV-vis spectrometry by Lineweaver-Burk plot analysis
T1 sequence (P00374 whole entry): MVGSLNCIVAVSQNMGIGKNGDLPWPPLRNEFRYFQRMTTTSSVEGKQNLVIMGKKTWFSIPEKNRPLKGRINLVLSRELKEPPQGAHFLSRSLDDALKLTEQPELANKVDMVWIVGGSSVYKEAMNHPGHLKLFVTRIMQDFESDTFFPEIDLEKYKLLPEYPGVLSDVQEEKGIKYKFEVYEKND

[1] = Inhibition of Escherichia coli DHFR
[2] = target: Bifunctional purine biosynthesis protein ATIC (Homo sapiens, UniProt P31939); experiment: Inhibition of AICAR transformylase (unknown origin)
Bifunctional purine biosynthesis protein ATIC, sequence (P31939 whole entry): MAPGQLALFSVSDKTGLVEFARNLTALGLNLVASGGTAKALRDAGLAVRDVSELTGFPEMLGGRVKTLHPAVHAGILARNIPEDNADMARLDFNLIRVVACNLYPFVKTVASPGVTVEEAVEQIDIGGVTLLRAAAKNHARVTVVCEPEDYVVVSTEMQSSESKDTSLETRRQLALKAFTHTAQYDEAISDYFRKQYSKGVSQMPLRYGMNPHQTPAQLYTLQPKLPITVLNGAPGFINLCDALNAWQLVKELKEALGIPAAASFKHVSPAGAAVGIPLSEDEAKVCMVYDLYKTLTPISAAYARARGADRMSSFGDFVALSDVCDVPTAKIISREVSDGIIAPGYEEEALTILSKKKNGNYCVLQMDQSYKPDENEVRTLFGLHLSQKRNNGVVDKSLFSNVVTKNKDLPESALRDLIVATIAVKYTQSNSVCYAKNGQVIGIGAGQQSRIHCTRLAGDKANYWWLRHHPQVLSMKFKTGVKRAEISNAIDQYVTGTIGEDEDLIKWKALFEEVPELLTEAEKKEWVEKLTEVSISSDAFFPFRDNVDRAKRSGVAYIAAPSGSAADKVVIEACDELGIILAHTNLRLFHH

[3] = Selectivity index, ratio of Ki for Lactobacillus casei DHFR to Ki for human DHFR
[4] = Inhibition of Lactobacillus casei DHFR; design: species or system Lacticaseibacillus casei
[5] = Selectivity index, ratio of Ki for Escherichia coli DHFR to Ki for human DHFR

| Compound | pKi (Dihydrofolate reductase) | also measured |
| --- | --- | --- |
| COc1ccc2cc([C@@H](C)C(=O)O)ccc2c1 | 2.47 |  |
| Cc1cccc(Nc2ccccc2C(=O)O)c1C [MEFENAMIC ACID] | 4.14 |  |
| COc1ccc2cc([C@H](C)C(=O)O)ccc2c1 [NAPROXEN] | 2.15 |  |
| CC(C)Cc1ccc(C(C)C(=O)O)cc1 (configuration not stated) [IBUPROFEN] | 3.25 |  |
| CN(C)C(=N)NC(=N)N [METFORMIN] | 1.74 | pIC50 [1]: 1.75 |
| Nc1ccc(C(=O)N[C@@H](CCC(=O)O)C(=O)O)cc1 | 3.74 |  |
| N[C@@H](Cc1c[nH]c2ccccc12)C(=O)O [TRYPTOPHAN] | 2.55 | pIC50 (Dihydrofolate reductase): 2.19 |
| O=C(O)CCC(=O)c1ccc(-c2ccccc2)cc1 [FENBUFEN] | 3.44 |  |
| CCc1cccc2c3c([nH]c12)C(CC)(CC(=O)O)OCC3 (configuration not stated) [ETODOLAC] | 2.74 |  |
| O=C(O)c1cc(-c2ccc(F)cc2F)ccc1O [DIFLUNISAL] | 4.47 |  |
| O=C(O)CNC(=O)c1ccccc1 [HIPPURIC ACID] | 1.77 |  |
| O=C(O)c1cc(/N=N/c2ccc(S(=O)(=O)Nc3ccccn3)cc2)ccc1O [SULFASALAZINE] |  | pKi [2]: 4.66 |
| O=C(O)c1cc(-c2ccccc2)ccc1O | 4.32 |  |
| O=C(O)Cc1ccccc1Nc1c(Cl)cccc1Cl [DICLOFENAC] | 3.80 |  |
| N=C(N)NC(=N)NCCc1ccccc1 [PHENFORMIN] | 3.85 | pIC50 [1]: 3.77 |
| Nc1ccnc(N)n1 [DIAMINOPYRIMIDINE] |  | Ratio Ki [3]: 10; pKi [4]: 2.74; pKi [1]: 2.74; Ratio Ki [5]: 10 |
